According to patent US20230212549A1, “COMPOUNDS COMPRISING A […] LIGAND AND USE THEREOF” (priority 2021, published 2023):
Numbered stars: 1 amine (or outer) side, 2 acyl side, 3 side chain; on linkers, the order of the positions; unused ones are H or OH. Bridge positions count the residues as written; N and C are the ends. Square brackets hold non-standard residues; d marks the D form. Peptide text beside a SMILES is read from it. * marks the point of attachment. X35 = CC1(C)C(=CC=CC=CC2=[N+](CCCCS(=O)(=O)[O-])c3ccccc3C2(C)C)N(CCCCCC(=O)N2CCN(Cc3cc(C[*:1])cc(C[*:2])c3)CC2)c2ccccc21; X12 = O=C(O)CN1CCN(CC(=O)O)CCN(CC(=O)NCCCOCCOCCOCCCN*)CCN(CC(=O)O)CC1; DOTA = O=C(O)CN1CCN(CC(=O)O)CCN(CC(=O)*)CCN(CC(=O)O)CC1; Oic = O=C(O)[C@@H]1C[C@@H]2CCCC[C@@H]2N1; mXylylene = c1cc(C[*:1])cc(C[*:2])c1; NMeF = CN[C@@H](Cc1ccccc1)C(=O)O; 2Thi = N[C@@H](Cc1cccs1)C(=O)O; Suc = O=C(CCC(=O)[*:2])[*:1]; Hexanoyl = CCCCCC(=O)*; Aib = CC(C)(N)C(=O)O; Inp = O=C(O)C1CCNCC1; Ahx = NCCCCCC(=O)O; βAla = NCCC(=O)O

What was measured:
[1] = molecular target: T1, FAP-expressing human WI-38 fibroblasts (Homo sapiens, UniProt Q12884); assay: Competitive FACS binding assay
T1 construct: FAP-expressing human WI-38 fibroblasts (ECACC) were cultured in EMEM; host or cells: WI-38 human fibroblasts
T1 sequence (Q12884 whole entry): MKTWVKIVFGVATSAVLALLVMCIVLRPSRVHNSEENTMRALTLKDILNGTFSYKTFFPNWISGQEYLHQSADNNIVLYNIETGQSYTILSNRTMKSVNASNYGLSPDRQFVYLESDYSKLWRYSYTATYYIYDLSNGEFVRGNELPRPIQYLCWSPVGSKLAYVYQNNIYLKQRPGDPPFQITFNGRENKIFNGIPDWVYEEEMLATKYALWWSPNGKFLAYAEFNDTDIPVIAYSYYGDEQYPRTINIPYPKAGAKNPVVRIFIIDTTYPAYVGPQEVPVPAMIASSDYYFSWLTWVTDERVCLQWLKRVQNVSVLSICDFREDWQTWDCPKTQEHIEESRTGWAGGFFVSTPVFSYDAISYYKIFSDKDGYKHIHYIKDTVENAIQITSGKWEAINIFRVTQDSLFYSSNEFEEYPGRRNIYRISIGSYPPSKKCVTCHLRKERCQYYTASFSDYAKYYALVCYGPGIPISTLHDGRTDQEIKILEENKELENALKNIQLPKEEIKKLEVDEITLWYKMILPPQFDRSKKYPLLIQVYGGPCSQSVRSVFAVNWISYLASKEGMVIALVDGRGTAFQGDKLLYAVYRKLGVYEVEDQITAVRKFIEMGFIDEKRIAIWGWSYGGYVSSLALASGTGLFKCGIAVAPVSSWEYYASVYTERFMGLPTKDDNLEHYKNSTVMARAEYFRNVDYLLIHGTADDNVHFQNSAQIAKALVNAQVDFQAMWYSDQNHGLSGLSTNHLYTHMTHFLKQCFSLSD
Method: Cells were analyzed in an Attune NxT flow cytometer. […] […].
Cells were analyzed in an Attune NxT flow cytometer. […]

Human recombinant FAP = Human recombinant FAP (Homo sapiens, UniProt Q12884); assay: FRET-based FAP protease activity assay; type: biochemical; parameters: purchased R&D systems 3715-SE
Human recombinant FAP, sequence (Q12884 whole entry): as above

[2] = pIC50 Category (Activity), FRET-based FAP protease activity assay, recombinant human FAP, 37° C.

Row | Structure (SMILES) | IC50 [1] | IC50 (Human recombinant FAP; pIC50 (highest activity categories), text on Table 9 categories (FACS binding and FAP activity assay)) | IC50 (Human recombinant FAP; [2]) | IC50 (Human recombinant FAP; pIC50 Category (activity), Recombinant human FAP) | pIC50 Category (activity) (Human recombinant FAP; Recombinant human FAP)
1 | CSCC[C@H](NC(=O)CCC(=O)NCCCOCCOCCOCCCNC(=O)CN1CCN(CC(=O)O)CCN(CC(=O)O)CCN(CC(=O)O)CC1)C(=O)N[C@H]1CSCc2cccc(c2)CSC[C@@H](C(=O)N[C@@H](CC(=O)O)C(=O)N[C@@H](Cc2c[nH]cn2)C(=O)N[C@@H](Cc2ccccc2)C(=O)N[C@@H](CCCNC(=N)N)C(=O)N[C@@H](CC(=O)O)C(N)=O)NC(=O)[C@H](Cc2ccccc2)NC(=O)[C@H](CCC(=O)O)NC(=O)[C@H]([C@@H](C)O)NC(=O)[C@@H]2CCCN2C(=O)[C@@H]2CCCN2C1=O [3BP-3169, DOTA-Ttds-Met-[Cys(3MeBn)-Pro-Pro-Thr-Glu-Phe-Cys]-Asp-His-Phe-Arg-Asp-NH2] ({X12-Suc}-MCPPTEFCDHFRD-NH2; linker 2-8 via mXylylene) | < 10 nM | < 10 nM | < 10 nM | – | –
2 | CC(C)C[C@H](NC(=O)CCC(=O)NCCCOCCOCCOCCCNC(=O)CN1CCN(CC(=O)O)CCN(CC(=O)O)CCN(CC(=O)O)CC1)C(=O)N[C@H]1CSCc2cccc(c2)CSC[C@@H](C(=O)N[C@@H](CC(=O)O)C(=O)N[C@@H](Cc2c[nH]cn2)C(=O)N[C@@H](Cc2ccccc2)C(=O)N[C@@H](CCCNC(=N)N)C(=O)N[C@@H](CC(=O)O)C(N)=O)NC(=O)[C@H](Cc2ccccc2)NC(=O)[C@H](CCC(=O)O)NC(=O)[C@H]([C@@H](C)O)NC(=O)[C@@H]2CCCN2C(=O)[C@@H]2CCCN2C1=O [3BP-3172, DOTA-Ttds-Leu-[Cys(3MeBn)-Pro-Pro-Thr-Glu-Phe-Cys]-Asp-His-Phe-Arg-Asp-NH2] ({X12-Suc}-LCPPTEFCDHFRD-NH2; linker 2-8 via mXylylene) | < 10 nM | – | < 10 nM | – | –
3 | CSCC[C@H](NC(C)=O)C(=O)N[C@@H]1CSCc2cccc(c2)CSC[C@@H](C(=O)N[C@@H](CC(=O)O)C(=O)N[C@@H](Cc2c[nH]cn2)C(=O)N[C@@H](Cc2ccccc2)C(=O)N[C@@H](CCCNC(=N)N)C(=O)N[C@@H](CC(=O)O)C(N)=O)NC(=O)[C@H](Cc2ccccc2)NC(=O)[C@H](CCC(=O)O)NC(=O)[C@H]([C@@H](C)O)NC(=O)[C@@H]2CCCN2C(=O)[C@@H]2CCCN2C1=O [3BP-3175, Ac-Met-[cys(3MeBn)-Pro-Pro-Thr-Glu-Phe-Cys]-Asp-His-Phe-Arg-Asp-NH2] (Ac-M[dC]PPTEFCDHFRD-NH2; linker 2-8 via mXylylene) | < 10 nM | – | < 10 nM | – | –
4 | CSCC[C@H](NC(C)=O)C(=O)N[C@H]1CSCc2cccc(c2)CSC[C@@H](C(=O)N[C@@H](CC(=O)O)C(=O)N[C@@H](Cc2c[nH]cn2)C(=O)N[C@@H](Cc2ccccc2)C(=O)N[C@@H](CCCNC(=N)N)C(=O)N[C@@H](CC(=O)O)C(N)=O)NC(=O)[C@H](Cc2cccs2)NC(=O)[C@H](CCC(=O)O)NC(=O)[C@H]([C@@H](C)O)NC(=O)[C@@H]2CCCN2C(=O)[C@@H]2CCCN2C1=O [3BP-3193, Ac-Met-[Cys(3MeBn)-Pro-Pro-Thr-Glu-Thi-Cys]-Asp-His-Phe-Arg-Asp-NH2] (Ac-MCPPTE[2Thi]CDHFRD-NH2; linker 2-8 via mXylylene) | < 10 nM | – | < 10 nM | – | –
5 | CSCC[C@H](NC(C)=O)C(=O)N[C@H]1CSCc2cccc(c2)CSC[C@@H](C(=O)N[C@@H](CC(=O)O)C(=O)N[C@@H](Cc2c[nH]cn2)C(=O)N[C@@H](Cc2ccccc2)C(=O)N[C@@H](CCCNC(=N)N)C(=O)N[C@@H](CC(=O)O)C(N)=O)NC(=O)[C@H](Cc2ccccc2)NC(=O)[C@H](CCC(=O)O)NC(=O)[C@H]([C@@H](C)O)NC(=O)[C@@H]2CCCN2C(=O)C(C)(C)NC1=O [3BP-3204, Ac-Met-[Cys(3MeBn)-Aib-Pro-Thr-Glu-Phe-Cys]-Asp-His-Phe-Arg-Asp-NH2] (Ac-MC[Aib]PTEFCDHFRD-NH2; linker 2-8 via mXylylene) | 10 to 79.4 nM | – | 10 to 79.4 nM | – | –
6 | CSCC[C@H](NC(C)=O)C(=O)N[C@H]1CSCc2cccc(c2)CSC[C@@H](C(=O)N[C@@H](CC(=O)O)C(=O)N[C@@H](Cc2c[nH]cn2)C(=O)N[C@@H](Cc2ccccc2)C(=O)N[C@@H](CCCNC(=N)N)C(=O)N[C@@H](CC(=O)O)C(N)=O)NC(=O)[C@H](Cc2ccccc2)NC(=O)[C@H](CCC(=O)O)NC(=O)[C@H]([C@@H](C)O)NC(=O)[C@@H]2CCCN2C(=O)[C@@H]2C[C@@H]3CCCC[C@@H]3N2C1=O [3BP-3216, Ac-Met-[Cys(3MeBn)-Oic-Pro-Thr-Glu-Phe-Cys]-Asp-His-Phe-Arg-Asp-NH2] (Ac-MC[Oic]PTEFCDHFRD-NH2; linker 2-8 via mXylylene) | 100 to 794 nM | – | 100 to 794 nM | – | –
7 | CSCC[C@H](NC(C)=O)C(=O)N[C@H]1CSCc2cccc(c2)CSC[C@@H](C(=O)N[C@@H](CC(=O)O)C(=O)N[C@@H](Cc2c[nH]cn2)C(=O)N[C@@H](Cc2ccccc2)C(=O)N[C@@H](CCCNC(=N)N)C(=O)N[C@@H](CC(=O)O)C(N)=O)NC(=O)[C@H](Cc2ccccc2)NC(=O)[C@H](CCC(=O)O)NC(=O)[C@H]([C@@H](C)O)NC(=O)[C@@H]2C[C@@H]3CCCC[C@@H]3N2C(=O)[C@@H]2CCCN2C1=O [3BP-3217, Ac-Met-[Cys(3MeBn)-Pro-Oic-Thr-Glu-Phe-Cys]-Asp-His-Phe-Arg-Asp-NH2] (Ac-MCP[Oic]TEFCDHFRD-NH2; linker 2-8 via mXylylene) | 100 to 794 nM | – | 100 to 794 nM | – | –
8 | C[C@@H](O)[C@@H]1NC(=O)[C@@H]2CCCN2C(=O)[C@@H]2CCCN2C(=O)[C@@H](NC(=O)CCNC(=O)CN2CCN(CC(=O)O)CCN(CC(=O)O)CCN(CC(=O)O)CC2)CSCc2cccc(c2)CSC[C@@H](C(=O)N[C@@H](CC(=O)O)C(=O)N[C@@H](Cc2c[nH]cn2)C(=O)N(C)[C@@H](Cc2ccccc2)C(=O)N[C@@H](CCCNC(=N)N)C(=O)N[C@@H](CC(=O)O)C(N)=O)NC(=O)[C@H](Cc2ccccc2)NC(=O)[C@H](CCC(=O)O)NC1=O [3BP-3264, DOTA-Bal-[Cys(3MeBn)-Pro-Pro-Thr-Glu-Phe-Cys]-Asp-His-Nmf-Arg-Asp-NH2] ({DOTA-βAla}-CPPTEFCDH[NMeF]RD-NH2; linker 1-7 via mXylylene) | 10 to 79.4 nM | – | 10 to 79.4 nM | – | –
9 | C[C@@H](O)[C@@H]1NC(=O)[C@@H]2CCCN2C(=O)[C@@H]2CCCN2C(=O)[C@@H](NC(=O)C2CCN(C(=O)CN3CCN(CC(=O)O)CCN(CC(=O)O)CCN(CC(=O)O)CC3)CC2)CSCc2cccc(c2)CSC[C@@H](C(=O)N[C@@H](CC(=O)O)C(=O)N[C@@H](Cc2c[nH]cn2)C(=O)N(C)[C@@H](Cc2ccccc2)C(=O)N[C@@H](CCCNC(=N)N)C(=O)N[C@@H](CC(=O)O)C(N)=O)NC(=O)[C@H](Cc2ccccc2)NC(=O)[C@H](CCC(=O)O)NC1=O [3BP-3265, DOTA-Inp-[Cys(3MeBn)-Pro-Pro-Thr-Glu-Phe-Cys]-Asp-His-Nmf-Arg-Asp-NH2] ({DOTA-Inp}-CPPTEFCDH[NMeF]RD-NH2; linker 1-7 via mXylylene) | 100 to 794 nM | – | 100 to 794 nM | – | –
10 | C[C@@H](O)[C@@H]1NC(=O)[C@@H]2CCCN2C(=O)[C@@H]2CCCN2C(=O)[C@@H](NC(=O)CCCCCNC(=O)CN2CCN(CC(=O)O)CCN(CC(=O)O)CCN(CC(=O)O)CC2)CSCc2cccc(c2)CSC[C@@H](C(=O)N[C@@H](CC(=O)O)C(=O)N[C@@H](Cc2c[nH]cn2)C(=O)N(C)[C@@H](Cc2ccccc2)C(=O)N[C@@H](CCCNC(=N)N)C(=O)N[C@@H](CC(=O)O)C(N)=O)NC(=O)[C@H](Cc2ccccc2)NC(=O)[C@H](CCC(=O)O)NC1=O [3BP-3266, DOTA-Ahx-[Cys(3MeBn)-Pro-Pro-Thr-Glu-Phe-Cys]-Asp-His-Nmf-Arg-Asp-NH2] ({DOTA-Ahx}-CPPTEFCDH[NMeF]RD-NH2; linker 1-7 via mXylylene) | 100 to 794 nM | – | 100 to 794 nM | – | –
11 | CCCCCC(=O)N[C@H]1CSCc2cc(cc(CN3CCN(C(=O)CCCCCN4C(=CC=CC=CC5=[N+](CCCCS(=O)(=O)[O-])c6ccccc6C5(C)C)C(C)(C)c5ccccc54)CC3)c2)CSC[C@@H](C(=O)N[C@@H](CC(=O)O)C(N)=O)NC(=O)[C@H](Cc2ccccc2)NC(=O)[C@H](CCC(N)=O)NC(=O)[C@H]([C@@H](C)O)NC(=O)[C@@H]2CCCN2C(=O)[C@@H]2CCCN2C1=O [3BP-3693, Hex-[Cys(tMeBn(Cy5SO3-PP))-Pro-Pro-Thr-Gln-Phe-Cys]-Asp-NH2] (Hexanoyl-CPPTQFCD-NH2; linker 1-7 via X35) | – | – | 10 to 79.4 nM | – | –
12 | CCCCCC(=O)N[C@H]1CSCc2cc(CSCCNC(=O)CCCCCN3C(=CC=CC=CC4=[N+](CCCCS(=O)(=O)[O-])c5ccccc5C4(C)C)C(C)(C)c4ccccc43)cc(c2)CSC[C@@H](C(=O)O)NC(=O)[C@H](Cc2ccccc2)NC(=O)[C@H](CCC(N)=O)NC(=O)[C@H]([C@@H](C)O)NC(=O)[C@@H]2CCCN2C(=O)[C@@H]2CCCN2C1=O [3BP-3694, Hex-[Cys(tMeBn(Cy5SO3-AET))-Pro-Pro-Thr-Gln-Phe-Cys]-OH] | – | – | 100 to 794 nM | – | –
13 | CCCCCC(=O)N[C@H]1CSCc2cc(CSCCNC(=O)CN3CCN(CC(N)=O)CCN(CC(N)=O)CCN(CC(N)=O)CC3)cc(c2)CSCC(C(=O)O)NC(=O)[C@H](Cc2ccccc2)NC(=O)[C@H](CCC(N)=O)NC(=O)[C@H]([C@@H](C)O)NC(=O)[C@@H]2CCCN2C(=O)[C@@H]2CCCN2C1=O (stereo partly drawn) [3BP-5323, Hex-[Cys(tMeBn(DOTAM-AET))-Pro-Pro-Thr-Gln-Phe-Cys]-OH] | – | – | – | < 10 nM | –
14 | CCCCCC(=O)N[C@H]1CSCc2cc(CSCCNC(=O)COc3ccc4nc3CN(CC(=O)O)CCN(CC(=O)O)CCN(CC(=O)O)C4)cc(c2)CSC[C@@H](C(=O)O)NC(=O)[C@H](Cc2ccccc2)NC(=O)[C@H](CCC(N)=O)NC(=O)[C@H]([C@@H](C)O)NC(=O)[C@@H]2CCCN2C(=O)[C@@H]2CCCN2C1=O [3BP-5363, Hex-[C(tMeBn(LaAcPCTA-AET))-PPTQFC]-OH] | – | – | – | – | B (category B for pIC50 values between 7.1 and 8.0)
